The values below come from publication PMC6811774, “Potent, selective, and subunit‐dependent activation of TRPC5 channels by a xanthine derivative” (British Journal of Pharmacology, 2019).

What all share (assay type): cell-based, human
In one data set the test system is wild-type HEK 293 cells. The data set is described as follows: [Ca2+]i measurement in wild-type HEK 293 cells. The following applies: 0.3–300 nM. The procedure:
Intracellular concentration of Ca^2+ ([Ca^2+]i) recordings were carried out using the ratiometric Ca^2+ dye Fura‐2; 24 hr before experiments, cells were plated onto black, clear bottom poly‐D‐lysine coated 96‐well plates, and for T‐REx cells, TRPM2 or TRPC1/4/5 protein expression was induced with 1 μg·ml^−1 tetracycline at this point. All cells were used at 90% confluence. To load cells with the Fura‐2 dye, media was removed and cells were incubated with standard bath solution (SBS; composition, in mM, NaCl 130, KCl 5, glucose 8, HEPES 10, MgCl2 1.2, and CaCl2 1.5) containing 2‐μM Fura‐2 acetoxymethyl ester (Fura‐2 AM) and 0.01% pluronic acid for 1 hr at 37°C. For CHO cells stably expressing TRPV4 protein, probenecid (final concentration 2.5 mM) was present in all buffers used from the point of Fura‐2 AM application. After this incubation, cells were washed with fresh SBS and incubated at room temperature for a further 30 min. SBS was then changed to recording buffer (SBS with 0.01% pluronic acid and 0.1% DMSO to match compound buffer) immediately prior to experimentation. In the case of inhibitor studies, cells were washed twice with fresh SBS after incubation with Fura‐2 AM, followed by the addition of SBS with 0.01% pluronic acid and the relevant inhibitor or vehicle. Cells were then incubated for 30 min prior to the experiment. […]

The subject of data set [1] is HEK T-REx (Tet+) cells expressing TRPC5. The data set is described as follows: LIVE/DEAD cell viability assay. To be noted: AM237 up to 1 μM, 30 min. The procedure: Cell viability was assayed using the LIVE/DEAD® cell viability kit (Molecular Probes™, Eugene, Oregon, USA). HEK T‐REx expressing tetracycline‐inducible hTRPC5 were plated onto black, clear bottom poly‐D‐lysine‐coated 96‐well plates, at 25,000 cells per well, and TRPC5 protein expression was induced with 1 μg·ml^−1 tetracycline. Cells were cultured for 24 hr in DMEM‐F12 GlutaMAX (Invitrogen, Paisley, UK) containing 10% FBS, with the addition of blasticidin (10 μg·ml^−1) and zeocin (400 μg·ml^−1). For wells containing methanol‐treated positive control cells, medium was removed and 70% methanol/distilled water (100 μl) was added and cells returned to the incubator for 30 min. After incubation, the solution in each well was replaced with recording buffer (SBS with 0.01% pluronic acid and 0.05% DMSO; 100 μl). The LIVE/DEAD® (Molecular Probes™, Eugene, Oregon, US) cell viability kit was used to stain the cells. Calcein AM (5 μl) and ethidium homodimer‐1 (20 μl) were added to SBS with […] (10 ml). Compound and vehicle dilutions were carried out directly in LIVE/DEAD® solution and 100 μl of each was added to the recording buffer in each corresponding well. Cells were incubated for 30 min and immediately imaged. Imaging and analysis was carried out on the IncuCyte® ZOOM (Essen Bioscience, Welwyn Garden City, UK).

In a further data set the test system is WT HEK 293 cells. The data set is described as follows: Whole-cell patch-clamp in WT HEK 293 cells. The following applies: AM237 1–100 nM; EA 30 nM.

Experimental for WT HEK 293 cells: For electrophysiology experiments, cells were plated at a low density of 20–30% onto round or square glass coverslips (13 mm diameter or 5 × 5 mm), and TRPC expression in HEK T‐REx was induced with 1 μg·ml^−1 tetracycline 24 hr before experimentation. Experiments were carried out at room temperature. Extracellular solution consisted of SBS. Patch‐clamp recordings were performed in whole‐cell mode (Figure S7) and in excised outside‐out patch mode under voltage clamp at room temperature using 2–4 MΩ patch pipettes fabricated from borosilicate glass capillaries with an outside diameter of 1 mm and an inside diameter of 0.58 mm (Harvard Apparatus). The voltage protocol comprised voltage ramps applied from −100 to +100 mV every 10 s from a holding potential of 0 mV. […] All solutions were filtered using a 0.2 μm filter (Sartorius, UK).

As for `Cn1c(=O)n(CCCO)c(=O)c2c1nc(Oc1ccc(Cl)c(OC(F)(F)F)c1)n2Cc1ccc(Cl)cc1` [AM237], the “Effect on [Ca2+]i in wild-type HEK 293 cells” value in the data set with wild-type HEK 293 cells is “did not increase”. Further, in data set [1], the “Cell viability (LIVE/DEAD)” value is “did not lead to reduced”. Moreover, the “Effect on whole-cell currents at +100 and -100 mV” value with WT HEK 293 cells is on record as “no significant effect”.
